# Tested on: adult schizophrenia patients with a persistent inadequate response to their existing antipsychotic therapy
# Test: 6-week study of pimavanserin or placebo added to existing antipsychotic treatment: efficacy rating scales
# Format: in vivo, human
# Protocol: The effect of pimavanserin as an adjunctive treatment in adult schizophrenia patients with a persistent inadequate response (i.e., partial responders) to their existing antipsychotic therapy was tested. 396 patients with moderate-to-severe psychotic symptoms were randomized to receive either pimavanserin or placebo added to existing antipsychotic treatment. […] Dosages of background oral antipsychotics could not be changed within four weeks of screening and dosages of long-acting injectables (LAI) could not be changed within 16 weeks of screening. […] Patients were administered a daily dose of pimavanserin or a placebo for six weeks. The dose started at 20 mg and could be adjusted to 34 mg or 10 mg between weeks 1 and 3. The majority of patients (56%) completed the study at the highest dose level. Patients were evaluated at baseline and on a weekly basis according to the clinical rating scale Positive and Negative Symptom Scale (PANSS). The PANSS is a 30-item, 7-point rating system that was developed to cover a range of negative symptoms not adequately measured by the Brief Psychiatric Rating Scale. It has sections that specifically measure positive symptoms, negative symptoms, and general psychopathology in schizophrenic subjects. The PANSS is widely used in trials of antipsychotic drug treatment, and has been formally validated for such use. A subset of 5 of the PANSS factors, the […] factors, were also evaluated. Other clinical rating scales that were assessed were the Clinical Global Impression Scale (CGI), Personal and Social Performance Scale (PSP), drug attitude inventory (DAI-10), Karolinska Sleepiness Scale (KSS), Calgary Depression Scale for Schizophrenia (CDSS), 36-item Short Form Physical Health evaluation ([…]) and 36-item Short Form Mental Health evaluation […].
# [1] = FAS population, W6, Missing as non-Rsp
# [2] = Full Analysis Set, OC, Week 6, listed as PIM
# [3] = Full Analysis Set, added to existing antipsychotic
# [4] = Sensitivity: MI in FAS, ANCOVA, W6
# [5] = Sensitivity: MI in RAND, ANCOVA, W6
# [6] = Sensitivity: OC in PP, MMRM, W6
structure (smiles),measurement,setting,value
"CC(C)COc1ccc(CNC(=O)N(Cc2ccc(F)cc2)C2CCN(C)CC2)cc1 [Pimavanserin, N-(4-Fluorophenylmethyl)-N-(1-methylpiperidin-4-yl)-N′-(4-(2-methylpropyloxy)phenylmethyl)carbamide]","CGI-I 1 or 2 Rsp, (%)",[1],(35.2) %
same,"CGI-I 1 or 2 Rsp, Diff in % (PIM − PBO)",[1],2.1%
same,"PANSS >= 20% Rsp, (%)",[1],(56.5) %
same,"PANSS >= 20% Rsp, Diff in % (PIM − PBO)",[1],5.9%
same,"PANSS >= 30% Rsp, (%)",[1],(36.8) %
same,"PANSS >= 30% Rsp, Diff in % (PIM − PBO)",[1],2.6%
same,"CGI-I 1 or 2 Rsp, (%)","FAS population, W6, OC",(39.3) %
same,"CGI-I 1 or 2 Rsp, Diff in % (PIM − PBO)","FAS population, W6, OC",4.9%
same,"CGI-I no Chg or Worsened, (%)","FAS population, W6, OC",(27.2) %
same,"CGI-I no Chg or Worsened, Diff in % (PIM − PBO)","FAS population, W6, OC",−0.9%
same,"PANSS >= 20% Rsp, (%)","FAS population, W6, OC",(63.0) %
same,"PANSS >= 20% Rsp, Diff in % (PIM − PBO)","FAS population, W6, OC",10.6%
same,"PANSS >= 30% Rsp, (%)","FAS population, W6, OC",(41.0) %
same,"PANSS >= 30% Rsp, Diff in % (PIM − PBO)","FAS population, W6, OC",5.6%
same,"CGI-S score, Change from Baseline to Week 6, Mean (SE)",Full Analysis Set,−0.8 (0.06)
same,"PANSS Marder negative factor score, Change from Baseline to Week 6, Mean (SE)",Full Analysis Set,−3.3 (0.31)
same,"PANSS Marder negative factor score, Week 6, Mean (SE)",Full Analysis Set,19.2 (0.38)
same,"PANSS negative symptoms scale sub-score, Change from Baseline to Week 6, Mean (SE)",Full Analysis Set,−2.8 (0.28)
same,"PANSS negative symptoms scale sub-score, Week 6, Mean (SE)",Full Analysis Set,20.3 (0.35)
same,"CGI-S score, Diff in MMRM LSM (SE), pimavanserin − placebo","Full Analysis Set, OC, Week 6",−0.1 (0.08)
same,"CGI-S score, Effect Size (Cohen's d)","Full Analysis Set, OC, Week 6",0.200
same,"PANSS Marder negative factor score, Diff in MMRM LSM (SE), pimavanserin − placebo","Full Analysis Set, OC, Week 6",−0.9 (0.41)
same,"PANSS Marder negative factor score, Effect Size (Cohen's d)","Full Analysis Set, OC, Week 6",0.218
same,"PANSS negative symptoms scale sub-score, Diff in MMRM LSM (SE), pimavanserin − placebo","Full Analysis Set, OC, Week 6",−0.7 (0.37)
same,"PANSS negative symptoms scale sub-score, Effect Size (Cohen's d)","Full Analysis Set, OC, Week 6",0.206
same,"PANSS total score, Diff in MMRM LSM (SE), pimavanserin − placebo","Full Analysis Set, OC, Week 6",−2.1 (1.24)
same,"PANSS total score, Effect Size (Cohen's d)","Full Analysis Set, OC, Week 6",0.173
same,"CGI-S score, Diff in MMRM LSM (SE), pimavanserin − placebo",[2],−0.1
same,"CGI-S score, Effect Size (Cohen's d)",[2],0.20
same,"PANSS Marder negative factor score, Diff in MMRM LSM (SE), pimavanserin − placebo",[2],−0.9
same,"PANSS Marder negative factor score, Effect Size (Cohen's d)",[2],0.22
same,"PANSS negative symptoms scale sub-score, Diff in MMRM LSM (SE), pimavanserin − placebo",[2],−0.7
same,"PANSS negative symptoms scale sub-score, Effect Size (Cohen's d)",[2],0.21
same,"PANSS total score, Diff in MMRM LSM (SE), pimavanserin − placebo",[2],−2.1
same,"PANSS total score, Effect Size (Cohen's d)",[2],0.17
same,"CGI-S score, Week 6, Mean (SE)",[3],3.8 (0.07)
same,"PANSS total score, Change from Baseline to Week 6, Mean (SE)",[3],−15.3 (0.93)
same,"PANSS total score, Week 6, Mean (SE)",[3],72.7 (1.04)
same,"Positive or negative symptoms, difference between treatment groups",North America,No significant differences
same,"Clinical Global Impressions-Severity, LS Mean Change at Week 6",North America subgroup,−0.7
same,"PANSS Total Score, LS Mean Change at Week 6",North America subgroup,−14.2
same,"Clinical Global Impressions-Severity, Cohen's d Effect Size","North America subgroup, Week 6",−0.144
same,"Clinical Global Impressions-Severity, LS Mean (SE) Difference","North America subgroup, Week 6",0.1 (0.15)
same,"PANSS Total Score, Cohen's d Effect Size","North America subgroup, Week 6",−0.229
same,"PANSS Total Score, LS Mean (SE) Difference","North America subgroup, Week 6",2.6 (2.74)
same,"PANSS Total, LSM Change from Baseline at W6","Sensitivity: MI in FAS, ANCOVA",−15.3
same,"PANSS Total, Effect Size",[4],0.16
same,"PANSS Total, Treatment group Comparison (PIM-PBO) LSM",[4],−1.9
same,"PANSS Total, LSM Change from Baseline at W6","Sensitivity: MI in RAND, ANCOVA",−15.2
same,"PANSS Total, Effect Size",[5],0.15
same,"PANSS Total, Treatment group Comparison (PIM-PBO) LSM",[5],−1.9
same,"PANSS Total, LSM Change from Baseline at W6",Sensitivity: OC ANCOVA,−15.3
same,"PANSS Total, Effect Size","Sensitivity: OC ANCOVA, W6",0.16
same,"PANSS Total, Treatment group Comparison (PIM-PBO) LSM","Sensitivity: OC ANCOVA, W6",−1.9
same,"PANSS Total, LSM Change from Baseline at W6","Sensitivity: OC in PP, MMRM",−15.6
same,"PANSS Total, Effect Size",[6],0.19
same,"PANSS Total, Treatment group Comparison (PIM-PBO) LSM",[6],−2.3

# — patent US20220288048A1, “PIMAVANSERIN FOR TREATING SCHIZOPHRENIA OR FOR TREATING PSYCHOSIS SECONDARY TO NEURODEGENERATIVE DISORDERS OR DEPRESSIVE DISORDER” (ACADIA Pharmaceuticals Inc., priority 2019, published 2022)
